Reference: article PMC6891541, “α-Glucosidase and Pancreatic Lipase Inhibitory Activities of Diterpenes from Indian Mango Ginger (Curcuma amada Roxb.) and Its Derivatives” (Molecules, 2019)

Experiments:
[1] = tested on: cancer cell lines such as MCF-7, KB and A549; parameters: method as in PMID 21629182; conditions: cited from earlier work
[2] = molecular target: T1, porcine pancreas lipase (Sus scrofa, UniProt P00591); assay: pancreatic lipase inhibition, 4-methylumbelliferyl oleate, HPLC fluorescence detection of 4-MU; format: biochemical; conditions: for IC50: porcine pancreas lipase, 4-methylumbelliferyl oleate substrate, read-out: IC Lipase
T1 construct: from tissue; host or cells: porcine pancreas
T1 sequence (P00591 1-450): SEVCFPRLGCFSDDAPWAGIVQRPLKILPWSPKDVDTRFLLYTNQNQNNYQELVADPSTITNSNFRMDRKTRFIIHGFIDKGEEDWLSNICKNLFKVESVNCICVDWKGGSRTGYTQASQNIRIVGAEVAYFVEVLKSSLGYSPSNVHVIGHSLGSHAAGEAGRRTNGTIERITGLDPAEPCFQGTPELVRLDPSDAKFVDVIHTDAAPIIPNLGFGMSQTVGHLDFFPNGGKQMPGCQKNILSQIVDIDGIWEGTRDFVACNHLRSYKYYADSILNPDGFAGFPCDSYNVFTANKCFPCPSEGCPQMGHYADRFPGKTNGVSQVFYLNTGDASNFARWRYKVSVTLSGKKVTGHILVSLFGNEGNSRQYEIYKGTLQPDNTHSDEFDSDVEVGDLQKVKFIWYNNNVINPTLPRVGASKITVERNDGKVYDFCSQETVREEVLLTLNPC
Method: For pancreatic lipase inhibitory enzymatic assays, a slightly modified method from that described in a previous paper was used. […] The test sample solution (50 µL) was added to 50 unit/mL of porcine pancreas lipase suspension (50 µL). […] The enzymatic reaction was carried out at 37 °C for 120 min and the reaction was terminated by the addition of citrate buffer (200 µL). After that, the intensity of fluorescent enzymatic product 4-MU was measured by HPLC with fluorescence detection. […] The inhibition percentage was calculated using Equation (2):Inhibition% = [Area (test sample) − Area (sample blank)/Area (control)] × 100(2)
Tetrahydrolipstatin was used as a positive control (Figure 5 and Figure 6).

[3] = tested on: human 5-lipoxygenase; conditions: cited from earlier work
[4] = tested on: α-glucosidase; parameters: method as in PMID 18179176; conditions: cited from earlier work
[5] = molecular target: rat intestinal α-glucosidase; assay: α-glucosidase inhibition, rat intestinal acetone powder, pNPG hydrolysis; format: biochemical; conditions: for IC50: pNPG substrate, read-out: IC α-Glucosidase; for α-glucosidase inhibitory activity (in words): rat intestinal α-glucosidase
Method: The α-glucosidase activity was calculated by measuring the amount of p-nitrophenol hydrolyzed from pNPG by α-glucosidase. Tested enzyme was prepared using α-glucosidase included in commercial rat intestinal acetone powder (Sigma-Aldrich). […] Sonication was performed 20 times each for durations of 10 s. After centrifugation at 7000× g for 15 min at 4 °C, the supernatant was separated from the pellet. The supernatant was diluted two-fold with 0.1 M phosphate buffer at pH 6.9. The test sample was dissolved in DMSO and then diluted in the same volume of 0.1 M phosphate buffer. The test sample solution (10 µL) was added to a crude enzyme suspension (40 µL). The solution was preincubated at 37 °C for 10 min, then 2.5 mM of pNPG dissolved in 0.1 M phosphate buffer (50 µL) was added to the reaction mixture as the substrate. The enzymatic reaction was carried out at 37 °C for 30 min and the reaction was terminated by the addition of 0.1 M Na2CO3 aq. (900 µL). The absorbance at 405 nm was determined. […] The acarbose was used as a positive control (Figure 4).

[6] = tested on: COX2; parameters: method as in doi:10.1016/j.foodchem.2010.06.064; conditions: cited from earlier work
[7] = tested on: Hep G2 cells; parameters: method as in PMID 30034597; conditions: cited from earlier work
[8] = α-glucosidase from rat intestine acetone powder

Compound: C=C1CC[C@H]2C(C)(C)CCC[C@]2(C)[C@H]1CC=C(C=O)CC(=O)O (stereo in doubt) [Compound 8, Zerumin A]
- cytotoxicity against cancer cell lines (in words) [1]: strong cytotoxicity
- IC50 [2]: 73.4 µM

Compound: CC1(C)CCC[C@]2(C)[C@@H](C=O)C(C=O)=CC[C@@H]12 [polygodial, reference compound]
- human 5-lipoxygenase inhibition (in words) [3]: inhibited human 5-lipoxygenase
- α-glucosidase inhibition (in words) [4]: did not show α-glucosidase inhibition

Compound: C[C@H]1O[C@H](O[C@H]2[C@H](O)[C@@H](O)[C@@H](O[C@H]3[C@H](O)[C@@H](O)C(O)O[C@@H]3CO)O[C@@H]2CO)[C@H](O)[C@@H](O)[C@@H]1N[C@H]1C=C(CO)[C@@H](O)[C@H](O)[C@H]1O (stereo partly drawn) [Acarbose, acarbose, reference compound]
- IC50 α-glucosidase [5, 8]: 247 ppm
- IC50 [5, 8]: 0.38 mM

Compound: C=C1CCC2C(C)(C)CCC[C@]2(C)[C@H]1C/C=C(\CCO)COC(C)=O (stereo partly drawn) [Compound 7, 16-Acetoxy-(E)-labda-8(17),12-diene-15-ol]
- IC50 [2]: 222 µM

Compound: C=C1CCC2C(C)(C)CCC[C@]2(C)[C@H]1C/C=C(/CO)CCOC(C)=O (stereo partly drawn) [Compound 6, 15-Acetoxy-(E)-labda-8(17),12-diene-16-ol]
- IC50 [2]: 102 µM

Compound: C=C1CCC2C(C)(C)CCC[C@]2(C)[C@H]1C/C=C(/C=O)CC=O (stereo partly drawn) [Compound 1, (E)-Labda-8(17),12-diene-15,16-dial]
- cytotoxicity against cancer cell lines (in words) [1]: strong cytotoxicity
- human 5-lipoxygenase inhibition (in words) [3]: inhibited human 5-lipoxygenase
- inhibition of COX2 compared with COX1 (in words) [6]: greater inhibition of COX2 than COX1
- cytotoxicity in Hep G2 cells (in words) [7]: without cytotoxicity
- α-glucosidase inhibitory activity (in words) [5]: strongest rat intestinal α-glucosidase inhibitory activity
- IC50 [5, 8]: 8.74 mM

Compound: C=C1CCC2C(C)(C)CCCC2(C)C1C=CC(C)=O (stereo not drawn) [Compound 2]
- cytotoxicity against cancer cell lines (in words) [1]: did not show cytotoxicity
- α-glucosidase inhibitory activity (in words) [5]: strong α-glucosidase inhibition
- IC50 [5, 8]: 17.5 mM
- IC50 [2]: 14.8 µM

Compound: C=C1CCC2C(C)(C)CCC[C@]2(C)[C@H]1C/C=C(\CC(=O)OC)C(=O)OC (stereo partly drawn) [Compound 10, (E)-Labda-8(17),12-diene-15,16-dimethylester]
- IC50 [2]: 119 µM

Compound: Albicanal [Compound 3]
- α-glucosidase inhibitory activity (in words) [5]: did not show any such activity
- IC50 [2]: 666 µM

Compound: C=C1CCC2C(C)(C)CCC[C@]2(C)[C@H]1C/C=C(\CCOC(C)=O)COC(C)=O (stereo partly drawn) [Compound 5, 15,16-Diacetoxyl-(E)-labda-8(17),12-diene]
- IC50 [2]: 111 µM

Compound: CCCCCCCCCCC[C@@H](C[C@@H]1OC(=O)[C@H]1CCCCCC)OC(=O)[C@H](CC(C)C)NC=O [Tetrahydrolipstatin, reference compound]
- Lipase inhibition ([2]; at 5.0 Nm, positive control): 94% (5.0 Nm)

Compound: C=C1CCC2C(C)(C)CCC[C@]2(C)[C@H]1C/C=C(\CC(=O)O)C(=O)O (stereo partly drawn) [Compound 9, (E)-Labda-8(17),12-diene-15,16-dicarboxylic acid]
- IC50 [2]: 76.8 µM

Compound: C=C1CCC2C(C)(C)CCC[C@]2(C)[C@H]1C/C=C(/CO)CCO (stereo partly drawn) [Compound 4, (E)-Labda-8(17),12-diene-15,16-diol]
- α-glucosidase inhibitory activity (in words) [5]: strong α-glucosidase inhibition
- IC50 [5, 8]: 11.6 mM
- IC50 [2]: 258 µM
